Data published in ChEMBL document CHEMBL1201862, “PubChem BioAssay data set” (2004).
Calls of active or inactive are those of the source.

Tests used:
[1] = growth suppression of PTEN-null colon cells, dose response, cell-based, HCT116 PTEN knockout (AID 1047); format: functional;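 also: HCT116 colon tumor cells with PTEN knocked out; cells exposed to compound for 60 hours before readout; potency for loss of cell viability measured by luminescence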
[2] = growth suppression of beta-catenin-knockout colon cells, dose response, cell-based, HCT116, human colon tumor (AID 1045); format: functional;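 also: HCT116 colon tumor cells with beta catenin knocked out; cells exposed to compound for 60 hours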
Cytochrome P450 3A4 = Cytochrome P450 3A4 (Homo sapiens, UniProt P08684);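 also: CYP3A4 tested as one member of a cytochrome P450 panel screen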
[3] = HEp-2 cell cytotoxicity, dose response, cytotoxicity control for RSV inhibitor project, HTS (AID 2410); format: functional; conditions: human respiratory syncytial virus
Cytochrome P450 1A2 = molecular target: T1, Cytochrome P450 1A2 (Homo sapiens, UniProt P05177);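 also: PubChem cytochrome P450 panel assay, CYP1A2 panel member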
T1 sequence (P05177 whole entry): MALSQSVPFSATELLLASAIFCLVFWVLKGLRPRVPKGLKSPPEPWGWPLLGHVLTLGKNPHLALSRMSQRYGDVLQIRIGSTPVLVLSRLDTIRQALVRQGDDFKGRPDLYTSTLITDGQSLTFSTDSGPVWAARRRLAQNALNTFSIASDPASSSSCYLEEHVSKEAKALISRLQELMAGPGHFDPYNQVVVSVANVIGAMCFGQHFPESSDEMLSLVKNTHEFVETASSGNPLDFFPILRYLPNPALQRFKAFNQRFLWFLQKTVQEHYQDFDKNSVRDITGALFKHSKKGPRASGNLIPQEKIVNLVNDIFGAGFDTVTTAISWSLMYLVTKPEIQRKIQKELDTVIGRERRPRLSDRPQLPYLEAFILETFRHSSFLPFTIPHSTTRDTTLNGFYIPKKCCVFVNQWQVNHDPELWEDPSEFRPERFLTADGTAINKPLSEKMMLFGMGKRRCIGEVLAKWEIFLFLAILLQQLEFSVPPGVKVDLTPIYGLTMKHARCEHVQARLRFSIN

H9c2 = test: cells; format: functional, cell-based; conditions: Rattus norvegicus, H9c2, Myocardium;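 also: confirmatory concentration-response retest of ultra-high-throughput screening hits for modulation of myocardial damage; cell death induced by hydrogen peroxide oxidative stress; compound pretreatment for 60 min then peroxide exposure for 2 h; potency is for protecting the cells against peroxide damage rather than for killing them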
[4] = molecular target: T2, Corticotropin-releasing factor receptor 2/Corticotropin-releasing factor-binding protein (Homo sapiens, UniProt P24387+Q13324); test: activators of CRF receptor 2 with binding protein – uHTS hits, confirmation (AID 602473); format: functional; conditions: read-out: EC50_Mean
T2 sequence (Q13324 whole entry): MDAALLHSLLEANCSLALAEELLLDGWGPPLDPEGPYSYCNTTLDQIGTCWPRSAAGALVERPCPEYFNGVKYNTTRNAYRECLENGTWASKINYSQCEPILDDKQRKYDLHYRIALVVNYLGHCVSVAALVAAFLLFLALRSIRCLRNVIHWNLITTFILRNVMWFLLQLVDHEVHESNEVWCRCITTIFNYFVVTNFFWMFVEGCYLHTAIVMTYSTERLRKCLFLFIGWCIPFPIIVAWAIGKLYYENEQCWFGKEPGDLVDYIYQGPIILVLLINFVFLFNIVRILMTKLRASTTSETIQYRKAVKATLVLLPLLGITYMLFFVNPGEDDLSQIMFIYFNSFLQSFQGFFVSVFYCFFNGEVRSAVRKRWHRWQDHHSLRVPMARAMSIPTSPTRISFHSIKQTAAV
T2 sequence (P24387 whole entry): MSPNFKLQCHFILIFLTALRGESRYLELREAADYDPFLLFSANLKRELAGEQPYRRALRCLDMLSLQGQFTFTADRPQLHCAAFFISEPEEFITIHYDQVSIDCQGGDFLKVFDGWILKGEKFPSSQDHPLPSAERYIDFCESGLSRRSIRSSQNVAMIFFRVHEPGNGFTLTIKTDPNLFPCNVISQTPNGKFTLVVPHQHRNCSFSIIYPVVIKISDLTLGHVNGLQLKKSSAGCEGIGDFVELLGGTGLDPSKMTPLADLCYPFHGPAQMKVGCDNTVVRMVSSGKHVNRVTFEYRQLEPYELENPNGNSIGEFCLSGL

[5] = inhibitors of intracellular T. cruzi replication, confirmation, NIH3T3 host cells, beta-gal luminescence (AID 2044); format: functional, cell-based;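 also: intracellular parasites grown in NIH/3T3 mouse fibroblasts as host cells; luminescent beta-galactosidase reporter signal from transgenic T. cruzi replicating inside host cells; inhibitors lower the luminescence signal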
[6] = cytotoxicity toward NIH3T3 fibroblasts, dose response, counter-screen, cell-based, ATP luminescence, mouse fibroblasts (AID 2010); format: functional;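 also: cells exposed to compound for about 90 hours before reading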
[7] = system: Streptococcus sp. 'group A'; test: growth inhibition of control SK(-) GAS strain, dose response, counter-screen for streptokinase expression inhibitor project, luminescence, kanamycin, BacTiterGlo, confirmation (AID 1900); format: functional, organism-based
Streptococcus = test: Group A Streptococcus viability loss, dose response, counter-screen for streptokinase expression inhibitor project, luminescence, BacTiterGlo (AID 1915); format: functional, organism-based;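 also: potency for reduction of bacterial viability or growth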
[8] = Luminescence Cell-Based Dose Response HTS to Identify Activators of Luciferase Translation or Activity in H4 […] Cells. [Related pubchem assays: 1829 (Project Summary), 1814 (Primary HTS)]; format: functional
H4 = test: Luminescence Cell-Based Dose Response HTS to Identify Activators of 5'UTR Stem-Loop Driven Prion Protein mRNA Translation in H4 Neuroglioblastoma Cells. [Related pubchem assays: 1829 (Project Summary), 1814 (Primary HTS)]; format: functional; conditions: Homo sapiens

Chain of Cytochrome P450 3A4 (P08684 whole entry): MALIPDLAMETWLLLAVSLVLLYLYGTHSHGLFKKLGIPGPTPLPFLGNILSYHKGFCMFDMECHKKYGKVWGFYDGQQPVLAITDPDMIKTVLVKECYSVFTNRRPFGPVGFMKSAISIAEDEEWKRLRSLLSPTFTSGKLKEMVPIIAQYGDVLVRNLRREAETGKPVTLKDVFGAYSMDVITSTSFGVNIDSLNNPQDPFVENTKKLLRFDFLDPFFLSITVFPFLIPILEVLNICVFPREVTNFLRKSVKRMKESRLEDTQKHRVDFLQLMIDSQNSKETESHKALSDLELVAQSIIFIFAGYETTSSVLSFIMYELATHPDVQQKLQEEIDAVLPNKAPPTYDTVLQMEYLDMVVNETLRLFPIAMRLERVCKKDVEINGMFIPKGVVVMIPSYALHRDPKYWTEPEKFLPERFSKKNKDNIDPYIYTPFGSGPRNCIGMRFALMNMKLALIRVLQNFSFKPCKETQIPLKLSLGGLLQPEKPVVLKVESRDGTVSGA

COC(=O)c1sccc1NC(=O)/C=C/c1ccc(Cl)cc1Cl
EC50 [1]: 13.8 µM (active) | EC50 [2]: 51.4 µM (active)

COc1ccc(-n2c(=O)c(-c3ccc(F)cc3)nc3cnc(OC)nc32)cc1
AC50 (Cytochrome P450 3A4): 15.8 µM (inconclusive)

CCCn1c(C(C)Nc2nc(-c3ccc(C)cc3)cs2)nc2ccccc21 (configuration not stated)
CC50 [3]: 15.2 µM (active)

Cc1nc2nc(-c3ccccc3)nn2c(C)c1C
CC50 [3]: 39.4 µM (active)

C[C@@H](C(=O)Nc1ccc2ccccc2c1)[C@H]1C[C@]1(C)[C@H](NS(=O)(=O)c1ccc(-c2ccccc2)cc1)c1ccccc1
AC50 (Cytochrome P450 1A2): 15.8 µM (inconclusive)

CCN(CC)CCNC(=O)CCc1nnc(O)c2ccccc12
IC50 (H9c2): > 79 µM (inactive)

O=c1[nH]c(=O)n(-c2ccccc2)c2c1C(C(F)(F)F)(C(F)(F)F)NC(CCC1CCCCC1)=N2
EC50 [4]: 7.07 µM (active)

O=C(O)c1[nH]c2c([N+](=O)[O-])cc([N+](=O)[O-])cc2c1C(=O)O
AC50 (Cytochrome P450 1A2): 0.126 µM (inconclusive)

Cc1c(NC(=O)c2cc3c(s2)-c2ccccc2OC3)cccc1[N+](=O)[O-]
CC50 [3]: 6.43 µM (active)

N#CC1=C(N)Oc2c(c(=O)sc3ccccc23)C1c1cccnc1 (configuration not stated)
EC50 [5]: 0.536 µM (active) | EC50 [6]: 8.85 µM (active)

NS(=O)(=O)c1ccc(/N=N\c2nc3c(S)ncnc3[nH]2)cc1
AC50 (Cytochrome P450 1A2): 6.31 µM (inconclusive)

COc1ccc2c(c1)OC[C@H]1[C@H]2N2C(=O)CN(Cc3ccc(F)cc3)C(=O)[C@@]2(C)[C@H]1c1ccccc1
CC50 [3]: 16.4 µM (active)

[O-][n+]1c(CN2CCCCC2)nc2cccc3c2c1-c1ccccc1-3
AC50 (Cytochrome P450 3A4): 3.16 µM (inconclusive)

O=C(c1ccc(COc2ccccc2Cl)o1)N1CCN(c2ccccc2)CC1
CC50 [3]: 13.4 µM (active)

Cc1cc(O)n2nc(Nc3cccc(Cl)c3)nc2n1
EC50 [4]: > 53 µM (inactive)

COc1ccc2[nH]cc(C(=O)CN3CCCCC3)c2c1
EC50 [4]: > 53 µM (inactive)

CCOc1ccccc1C(=O)Nc1cccc2cccnc12
CC50 [3]: 30.4 µM (active)

S=C(NC1CCCCC1)N1CCn2cccc2C1c1cccnc1 (configuration not stated)
EC50 [5]: 0.379 µM (active) | EC50 [6]: > 60 µM (not active)

O=[N+]([O-])c1cc([N+](=O)[O-])c2[nH]nc(-c3ccccc3)c2c1
EC50 [5]: 1.47 µM (active) | EC50 [6]: > 60 µM (not active)

COc1ccccc1OCCCn1cc(C=O)c2ccccc21
CC50 [3]: 8.95 µM (active)

COc1cccc(-c2nnc(Nc3nc4c(F)cccc4s3)o2)c1
EC50 [7]: 0.767 µM (active) | EC50 (Streptococcus): 26.2 µM (active)

N=c1c2c(-c3ccccc3)c(-c3ccccc3)n(Cc3ccco3)c2ncn1CCN1CCOCC1
EC50 [5]: 1.53 µM (active) | EC50 [1]: 7.92 µM (active) | EC50 [6]: > 60 µM (not active) | EC50 [2]: 8.19 µM (active)

COc1ccccc1NS(=O)(=O)c1cc(NC(=O)c2cccs2)ccc1N1CCCCC1
EC50 [5]: 1.23 µM (active) | EC50 [6]: > 30 µM (not active)

CSCCC(NC(=O)c1ccco1)C(=O)OCc1cc([N+](=O)[O-])cc2c1OCOC2 (configuration not stated)
EC50 [4]: 6.29 µM (active)

COc1cc(/C=C(\C#N)c2nc3ccccc3s2)ccc1OCC(=O)Nc1ccccc1
EC50 [1]: 25.2 µM (active) | EC50 [2]: 560 µM (active)

CN(C)CCCNc1c2c(nc3cc(-c4cccc(F)c4)nn13)CCC2
EC50 [5]: 0.181 µM (active) | EC50 [6]: > 60 µM (not active)

O=C(Nc1ccc(Cl)cc1)N1CCCN(Cc2ccc(F)cc2)C1
EC50 [1]: 17.2 µM (active) | EC50 [2]: 16.4 µM (active)

NNC(=O)CNc1cccc(Br)c1
AC50 (Cytochrome P450 3A4): 2.51 µM (inconclusive)

COc1ccc(Cl)cc1NC(=O)CSc1nnc(Cc2cccn2C)n1-c1ccc(F)cc1
EC50 [1]: 80.8 µM (active) | EC50 [2]: 72.9 µM (active)

CN1CCN(c2ccc(-c3ccnn3C(=O)Nc3cccc(C(F)(F)F)c3)cc2)CC1
EC50 [8]: 3.08 µM (active) | EC50 (H4): 5.98 µM (active)

Nc1nc2nc(-c3ccccc3)cc(C(F)(F)F)c2s1
CC50 [3]: 35.5 µM (active)

CCn1cc(C(=O)NCc2ccc3c(c2)OCO3)c(=O)c2cc(F)c(N3CCN(C)CC3)cc21
EC50 [5]: 1.16 µM (active) | EC50 [6]: > 60 µM (not active)

CCc1cccc2cc3c(N)c(C(=O)Nc4ccc(S(=O)(=O)N5CCCC5)cc4)sc3nc12
CC50 [3]: 38 µM (active)

CC(C(=O)NC1CCCC1)N(C(=O)Cn1nnc(-c2ccc(F)cc2)n1)c1ccccc1F (configuration not stated)
IC50 (H9c2): > 79 µM (inactive)

CN1/C(=C\C=C(/C#N)C(=O)Nc2ccccc2F)C(C)(C)c2ccccc21
EC50 [4]: 5.05 µM (active)

O=C(NCCNc1ccc([N+](=O)[O-])cc1)c1ccccc1Br
AC50 (Cytochrome P450 3A4): 28.2 µM (inconclusive)

O=C(Nc1ccc(N2CCN(C(=O)c3ccc(Cl)cc3)CC2)cc1)c1ccc(Br)o1
EC50 [5]: 4.09 µM (active) | EC50 [6]: > 60 µM (not active)

C[C@@H](C1=C(CCN(C)C)Cc2ccccc21)c1ccccn1
AC50 (Cytochrome P450 1A2): 20 µM (inconclusive)

Oc1nc(-c2ccccc2)n(-c2ccc(Cl)cc2)n1
EC50 [4]: > 53 µM (inactive)

COc1ccc(OC)c(C(=O)CSc2nnc(Cc3cccs3)n2CCc2ccccc2)c1
AC50 (Cytochrome P450 1A2): 7.08 µM (inconclusive) | AC50 (Cytochrome P450 3A4): 39.8 µM (inconclusive)

Cc1cccc(N2CCN(c3nc4ccc(Cl)cc4n4cnnc34)CC2)c1C
EC50 [1]: 19.1 µM (active) | EC50 [2]: 20 µM (active)

CCSc1nnc2nc3c(c(O)n12)C1(CCCC1)Cc1ccccc1-3
EC50 [7]: 8.43 µM (active) | EC50 (Streptococcus): 8.43 µM (active)

FC(F)(F)c1ccc2c(c1)nc(S)n2C1CC1
CC50 [3]: 34.1 µM (active)

Cc1cccc(Nc2nc(N3CCOCC3)nc(N3CCOCC3)n2)c1
EC50 [5]: 0.465 µM (active) | EC50 [6]: 5.8 µM (active)

O=C(Nc1ccc2nn(-c3ccccc3)nc2c1)c1cccnc1
CC50 [3]: > 50 µM (active)

CC(C)(C)C(=O)Cn1c(=N)n(Cc2ccccc2Cl)c2ccccc21
EC50 [5]: 2.39 µM (active) | EC50 [6]: > 60 µM (not active)

COc1ccc(CCNC(=O)COc2ccc(S(=O)(=O)NC3CCCCC3)cc2Cl)cc1
AC50 (Cytochrome P450 1A2): 25.1 µM (inconclusive)

Cc1ncc(C/N=C\c2ccc(Cl)cc2)c(N)n1
AC50 (Cytochrome P450 1A2): 5.01 µM (inconclusive)

Cc1ccc(NC(=O)N(Cc2ccco2)Cc2cc3cc(C)cc(C)c3nc2Cl)cc1
EC50 [5]: 2.78 µM (active) | EC50 [6]: > 30 µM (not active)

C[C@]12CC[C@H](O)C[C@@H]1CC[C@H]1[C@H]2CC[C@]2(C)[C@H](C(=O)CO)CC[C@@H]12
AC50 (Cytochrome P450 3A4): 1 µM (inconclusive)

O=C(CCCN1C(=O)/C(=C/c2ccccc2Cl)SC1=S)N1CCCC1
CC50 [3]: 15.5 µM (active)

CCOc1ccc(CN2CCN(Cc3nc(C(C)C)cs3)CC2CCO)cc1 (configuration not stated)
EC50 [5]: 0.845 µM (active) | EC50 [6]: > 60 µM (not active)

COc1ccc(-c2nc3cnc(N(C)C)nc3n(C[C@H]3CCCO3)c2=O)cc1
AC50 (Cytochrome P450 3A4): 6.31 µM (inconclusive)

O=C(CCn1c(=S)[nH]c2ccccc2c1=O)NCCCN1CCOCC1
AC50 (Cytochrome P450 3A4): 7.08 µM (inconclusive)

COc1ccc(/C=N\NC(=O)O)cc1
AC50 (Cytochrome P450 1A2): 0.501 µM (inconclusive)

COc1ccc(-c2oc(/N=C/N3CCCC3)c(C#N)c2-c2ccc(OC)cc2)cc1
EC50 [5]: 1.75 µM (active) | EC50 [6]: > 60 µM (not active)

Cc1c(/C=N\NC(=O)C2COc3ccc(C(C)(C)C)cc3O2)c2ccccc2n1C (configuration not stated)
EC50 [5]: 2.25 µM (active) | EC50 [6]: > 60 µM (not active)
